Assay results published in ChEMBL document CHEMBL2417542 (Bioorg Med Chem Lett, 2013).
Values after ≈ are worked out from the molar mass of the structure shown. Blank lines part the entries; values can stand above or below the compound they belong to.

Experiments:
[1] = test system: Human immunodeficiency virus 1; test: Antiviral activity against HIV1 3B harboring reverse transcriptase Y181C mutant infected in human MT2 cells assessed as protection against virus-induced effect by MTT assay; assay type: functional, organism-based
[2] = test system: Human immunodeficiency virus 1; test: Antiviral activity against HIV1 3B harboring reverse transcriptase K103N/Y181C double mutant infected in human MT2 cells assessed as protection against virus-induced effect by MTT assay; assay type: functional, organism-based
[3] = Aqueous solubility of the compound in Britton-Robinson buffer at pH 6.5 after 48 hrs by shake-flask method; assay type: physicochemical
[4] = test system: Human immunodeficiency virus 1; test: Antiviral activity against wild type HIV1 3B infected in human MT4 cells assessed as protection against virus-induced effect; assay type: functional, organism-based; settings: Human immunodeficiency virus 1, 3B
[5] = test system: Human immunodeficiency virus 1; test: Antiviral activity against HIV1 3B harboring reverse transcriptase Y181C mutant infected in human MT4 cells assessed as protection against virus-induced effect; assay type: functional, organism-based; settings: Human immunodeficiency virus 1, 3B
MT2 = test: (§1) Cytotoxicity against human MT2 cells assessed as growth inhibition; assay type: cell-based; settings: mt2
[6] = Aqueous solubility of the compound; assay type: physicochemical; settings: aqueous medium
[7] = Solubility of the compound in water by HPLC analysis; assay type: physicochemical
[8] = as §1; assay type: cell-based; settings: MT2 cells
[9] = Equilibrium solubility of the compound by shake-flask method; assay type: physicochemical
[10] = Intrinsic solubility of the compound in water at 25 degC after 7 days by HPLC analysis; assay type: physicochemical; settings: buffer, 168 h
[11] = Human immunodeficiency virus 1, 3B, MT2, read-out: EC50

Structure (SMILES): Cc1cc(C)c(Nc2cc(OCCN3CCOCC3)nc(Nc3ccc(C#N)cc3)n2)c(C)c1
EC50 [1, 11]: 700 nM | EC50 [2, 11]: 60 nM | solubility thermodynamic at 48 h [3]: 12.5 µg/mL (≈ 27.3 µM)

Structure (SMILES): Cc1cc(C)c(Nc2cc(OCCCN3CCOCC3)nc(Nc3ccc(C#N)cc3)n2)c(C)c1
EC50 [1, 11]: 480 nM | EC50 [2, 11]: 38 nM | solubility thermodynamic at 48 h [3]: 27.3 µg/mL (≈ 57.8 µM)

Structure (SMILES): Cc1cc(C)c(Nc2nc(Nc3ccc(C#N)cc3)nc(OCCN3CCOCC3)n2)c(C)c1
EC50 [1, 11]: 700 nM | EC50 [2, 11]: 110 nM | solubility thermodynamic at 48 h [3]: 4.42 µg/mL (≈ 9.62 µM)

Structure (SMILES): Cc1cc(C)c(Nc2nc(Nc3ccc(C#N)cc3)nc(OCCCN3CCOCC3)n2)c(C)c1
EC50 [1, 11]: 310 nM | EC50 [2, 11]: 31 nM | solubility thermodynamic at 48 h [3]: 15.3 µg/mL (≈ 32.3 µM)

Structure (SMILES): Cc1cc(C#N)cc(C)c1Nc1nc(Nc2ccc(C#N)cc2)nc(OCCCN2CCOCC2)n1
EC50 [1, 11]: 1000 nM | EC50 [2, 11]: 42 nM | solubility thermodynamic at 48 h [3]: 13.3 µg/mL (≈ 27.4 µM)

solubility thermodynamic at 48 h [3]: 14.2 µg/mL (≈ 27.8 µM)
Structure (SMILES): Cc1cc(/C=C/C#N)cc(C)c1Nc1nc(Nc2ccc(C#N)cc2)nc(OCCCN2CCOCC2)n1

Structure (SMILES): Cc1cc(F)c(Nc2nc(Nc3ccc(C#N)cc3)nc(OCCCN3CCOCC3)n2)c(F)c1
EC50 [1, 11]: 350 nM | EC50 [2, 11]: 70 nM | solubility thermodynamic at 48 h [3]: 22.9 µg/mL (≈ 47.6 µM)

Structure (SMILES): CCc1cc(F)c(Nc2nc(Nc3ccc(C#N)cc3)nc(OCCCN3CCOCC3)n2)c(F)c1
EC50 [1, 11]: 500 nM | EC50 [2, 11]: 50 nM

Structure (SMILES): CC(C)c1cc(F)c(Nc2nc(Nc3ccc(C#N)cc3)nc(OCCCN3CCOCC3)n2)c(F)c1
EC50 [1, 11]: 270 nM | EC50 [2, 11]: 30 nM

Structure (SMILES): N#Cc1ccc(Nc2nc(Nc3c(F)cc(C4CC4)cc3F)nc(OCCCN3CCOCC3)n2)cc1
EC50 [1, 11]: 1100 nM | EC50 [2, 11]: 150 nM

Structure (SMILES): Cc1cc(C)c(Nc2nc(Nc3ccc(C#N)cc3)nc(OCCC3CCNCC3)n2)c(C)c1
EC50 [1, 11]: 1000 nM | EC50 [2, 11]: 100 nM

Structure (SMILES): Cc1cc(C)c(Nc2nc(Nc3ccc(C#N)cc3)nc(OCCCC3CCNCC3)n2)c(C)c1
EC50 [1, 11]: 1200 nM | EC50 [2, 11]: 140 nM

solubility thermodynamic at 48 h [3]: 0.2 µg/mL (≈ 0.605 µM)
Structure (SMILES): Cc1cc(C)c(Nc2ncnc(Nc3ccc(C#N)cc3)n2)c(C)c1

Structure (SMILES): Cc1cc(C)c(Nc2ccnc(Nc3ccc(C#N)cc3)n2)c(C)c1 [DAPIVIRINE]
EC50 [4]: 1.2 nM | EC50 [1, 11]: 39 nM | EC50 [2, 11]: 39 nM | EC50 [5]: 7 nM | CC50 (MT2): 2000 nM

solubility [6]: < 1 µg/mL
Structure (SMILES): Cc1cc(C#N)cc(C)c1Oc1nc(Nc2ccc(C#N)cc2)nc(N)c1Br [ETRAVIRINE]

Structure (SMILES): Cc1ccnc2c1NC(=O)c1cccnc1N2C1CC1 [NEVIRAPINE]
solubility [7]: 167 µg/mL (≈ 627 µM) | EC50 ([1]; mt2): Not Active | EC50 ([2]; mt2): Not Active | CC50 [8]: > 100000 nM

solubility thermodynamic at 48 h [3]: 7.2 µg/mL (≈ 21.7 µM) | solubility thermodynamic [9]: 6.4 µg/mL (≈ 19.3 µM)
Structure (SMILES): CN1C(C(=O)Nc2ccccn2)=C(O)c2ccccc2S1(=O)=O [PIROXICAM]

Intrinsic_solubility [10]: < 0.03 µg/mL
Structure (SMILES): CC(C)=CCOc1cc(NC(=S)c2ccoc2C)ccc1Cl [UC 781]
